According to patent US11998602B2, “Methods for promoting myelination and for treating demyelinating diseases” (The Scripps Research Institute, priority 2018, dated 2024):

Test system: OPCs
Experiment: Binary global metabolomics analysis of taurine co-treatment
Format: cell-based, rat
Settings: for Cysteine pool, increase with taurine / Serine pool, increase with taurine / GSH level, increase with taurine / Cysteine level, increase with taurine / Serine level, increase with taurine: 20 mM taurine; for Cysteine pool, increase with taurine / Serine pool, increase with taurine: 3 days
Method: Rat primary optic nerve OPCs were isolated by panning (>99% A2B5^+) and cultured in poly-D-lysine (10 μg/ml)-coated TC dishes in OPC culture media (Neurobasal Media, Invitrogen) supplemented with B27-without vitamin A (Invitrogen), 1× non-essential amino acids, 1× Glutamax, 1× anti-anti, β-mercaptoethanol and PDGF-AA (50 ng/ml; Peprotech) at 37° C. with 5% CO2. The culture medium was replaced every 48 h and cells were collected before the confluency reached 60% to maintain a naive state. For differentiation, OPCs were plated at 1 million cells in one 10 cm petri-dish filled with differentiation media, which is identical to the culture media, but with PDGF-AA at 2 ng/ml. T3 and DMSO were used as the positive control and negative control, respectively. Five replicates of cells were collected at different times (0, 3, and 6 days) for metabolomics studies.
Global metabolomics and lipidomics. Cells incubated in differentiation medium were collected at Day 0, 3 and 6 for both the T3 and DMSO treated OPC. The cells were first rinsed with PBS twice to completely remove the culture medium and then scraped into a 1.5 mL Eppendorf vial using 500-1000 μL PBS. Subsequently, cells were collected by aspirating the supernatant after centrifugation at 1,000 rpm at 4° C. for 3 min. The global metabolites were extracted from cell pellets by a methanol:acetonitrile:water (2:2:1, v/v) solvent mixture. A volume of 600 μL of cold solvent was added to each pellet, vortexed for 30 s, and soaked in liquid nitrogen for 1 min. Samples were then allowed to thaw at room temperature and then sonicated for 10 min. This freeze-thaw process was repeated for additional twice. To further precipitate proteins, samples were incubated for 1 h at […], followed by centrifugation at 16,000 g at 4° C. for 15 min. The protein concentration of the cells was measured in the final pellet after centrifugation using BCA assay. The resulting supernatant was removed and evaporated to dryness in a vacuum concentrator (LABCONCO CentriVap Benchtop). The dry extracts were then reconstituted in the appropriate volume of acetonitrile/water (1:1, v/v), normalized by the protein concentration with the lowest concentration approximately 50 μL, sonicated for 10 min, and centrifuged for 15 min at 16,000 g and 4° C. to remove insoluble debris. The supernatants were transferred to HPLC vials with inserts and stored at −80° C. prior to LC/MS analysis. The Folch method was used to extract the lipids from OPCs treated with T3 and DMSO for 6 days. A mixture of 600 μL, chloroform/MeOH (2:1, v/v) was used in the freeze-thaw extraction method as described above, and a subsequent addition of 600 μL, of water was performed. Using this liquid-liquid extraction method, the organic phase was collected, dried and finally reconstituted in IPA/MeOH/H2O (5:1:4, v/v/v) before analysis.
Cell extracts were analyzed on a 6550 iFunnel QTOF mass spectrometer (Agilent Technologies) coupled with a 1290 UPLC system (Agilent Technologies). For global metabolomics, HPLC was carried out on a Luna Aminopropyl, 3 μm, 150 mm×1.0 mm I.D. HILIC column (Phenomenex). The mobile phase was composed of A=20 mM ammonium acetate and 40 mM ammonium hydroxide in 95% water (v/v) and B=95% acetonitrile. The remaining 5% components were either acetonitrile or water, respectively. A linear gradient from 100% B (0-5 min) to 100% A (50-55 min) was applied. A 10 min re-equilibration time was applied to the HILIC column for re-equilibration and maintenance of reproducibility. The flow rate was 50 μL/min, and the sample injection volume was 5 μL. ESI source conditions were set as follows: dry gas temperature, 200° C.; flow, 11 L/min, fragmentor, 380 V; sheath gas temperature, 300° C.; flow, 9 L/min; nozzle voltage, 500 V; capillary voltage, −500 V in ESI negative mode. The instrument was set to acquire data over the m/z range 50-1000, with the MS acquisition rate of 1 spectra/s. […]

Compound: NCCS(=O)(=O)O [taurine, 2-aminoethanesulfonic acid]
- Cysteine pool, increase with taurine (T3 1 μM): 58.8 fold
- Serine pool, increase with taurine (T3 1 μM): 17.1 fold
- Cysteine pool, increase with taurine (benztropine 0.5 μM): 154.4 fold
- Serine pool, increase with taurine (benztropine 0.5 μM): 10.0 fold
- Cysteine pool, increase with taurine (miconazole 2 μM): 76.5 fold
- Serine pool, increase with taurine (miconazole 2 μM): 19.4 fold
- GSH level, increase with taurine (day 3, T3 1 μM): 1.8 fold
- Cysteine level, increase with taurine (day 6, T3 1 μM): 26.6 fold
- GSH level, increase with taurine (day 6, T3 1 μM): 6.1 fold
- Serine level, increase with taurine (day 6, T3 1 μM): 2.1 fold
- Cysteine level, increase with taurine (day 6, benztropine 0.5 μM): 44.7 fold
- Serine level, increase with taurine (day 6, benztropine 0.5 μM): 13.4 fold
- Cysteine level, increase with taurine (day 6, miconazole 2 μM): 47.2 fold
- Serine level, increase with taurine (day 6, miconazole 2 μM): 92.5 fold
- Changes in GSH and glutamate with taurine (benztropine (0.5 μM) or miconazole (2 μM) treated cultures, both time points): only minimally altered
